Experimental data published in article PMC5897141 (Journal of neurochemistry, 2018).
Where “and” joins values, the source holds several entries; their conditions need not be identical. Identical values can stand only once. Like-named read-outs stand apart in the source and are kept apart here.

Assays:
[1] = HPLC radio-metabolite analysis of arterial plasma; type: in vivo, cynomolgus macaques
[2] = tested on: σ1/2 receptors; conditions: ref Tu et al. 2015; cited from earlier work
[3] = tested on: VAChT; assay: Test-retest reproducibility of BPND; type: in vivo, cynomolgus macaques; conditions: mean ± SD, 3 NHP subjects
[4] = tested on: VAChT; conditions: Lassen plot, baseline vs (-)-vesamicol 0.125 mg/kg; subject A
[5] = molecular target: VAChT; conditions: ref Tu et al. 2015; cited from earlier work
[6] = tested on: VAChT; type: in vivo, cynomolgus macaques
[7] = after 20 min p.i., 3 NHP subjects
[8] = 1TCM, striatum, mean ± SD, n = 3
[9] = 2TCM, cerebellum-hemispheres, mean ± SD, n = 3
[10] = 2TCM, frontal cortex, mean ± SD, n = 3
[11] = 2TCM, hippocampus, mean ± SD, n = 3
[12] = 2TCM, midbrain, mean ± SD, n = 3
[13] = 2TCM, occipital cortex, mean ± SD, n = 3
[14] = 2TCM, striatum, mean ± SD, n = 3
[15] = 2TCM, temporal cortex, mean ± SD, n = 3
[16] = 2TCM, thalamus, mean ± SD, n = 3
[17] = 2TCM, white matter, mean ± SD, n = 3
[18] = LoganAIF, striatum, mean ± SD, n = 3
[19] = MA1, striatum, mean ± SD, n = 3
[20] = RTM, reference cerebellum-hemispheres, striatum, mean ± SD, n = 7
[21] = SRTM, reference cerebellum-hemispheres, striatum, mean ± SD, n = 7
[22] = SRTM, frontal cortex, mean ± SD, n = 7
[23] = SRTM, hippocampus, mean ± SD, n = 7
[24] = SRTM, middle brain, mean ± SD, n = 7
[25] = SRTM, occipital cortex, mean ± SD, n = 7
[26] = SRTM, temporal cortex, mean ± SD, n = 7
[27] = SRTM, thalamus, mean ± SD, n = 7
[28] = SRTM, white matter, mean ± SD, n = 7

O=C(c1ccc(F)cc1)C1CCN(C2Cc3c(cccc3OCCF)CC2O)CC1 (single isomer, unassigned; (-)) [[^18F]VAT, ((-)-(1-(-8-(2-fluoroethoxy)-3-hydroxy-1,2,3,4-tetrahydronaphthalen-2-yl)piperidin-4-yl)(4-fluorophenyl)-methanone)]
percentile of unmetabolized parental tracer in plasma ([1]; 2 min post-injection): 96% ± 1
percentile of unmetabolized parental tracer in plasma ([1]; 90 min post-injection): 14% ± 2.7
parent tracer as share of total radioactivity in plasma [1, 7]: over 60%
polar metabolites as share of total radioactivity in plasma [1, 7]: ~ 40%
time of peak concentration of parental compound in plasma ([1]; post-injection): less than 1 min
selectivity for VAChT versus σ1/2 receptors [2]: over 10,000 fold
retest BPND ([3]; LoganREF, frontal cortex): 0.29 ± 0.08
test BPND ([3]; LoganREF, frontal cortex): 0.29 ± 0.06
retest BPND ([3]; LoganREF, hippocampus): 0.47 ± 0.19
test BPND ([3]; LoganREF, hippocampus): 0.46 ± 0.18
retest BPND ([3]; LoganREF, striatum): 2.26 ± 0.46
test BPND ([3]; LoganREF, striatum): 2.39 ± 0.73
retest BPND ([3]; LoganREF, thalamus): 0.74 ± 0.09
test BPND ([3]; LoganREF, thalamus): 0.70 ± 0.10
retest BPND ([3]; SRTM, frontal cortex): 0.30 ± 0.03
test BPND ([3]; SRTM, frontal cortex): 0.32 ± 0.07
retest BPND ([3]; SRTM, hippocampus): 0.48 ± 0.14
test BPND ([3]; SRTM, hippocampus): 0.46 ± 0.16
retest BPND ([3]; SRTM, striatum): 2.15 ± 0.38
test BPND ([3]; SRTM, striatum): 2.38 ± 0.69
retest BPND ([3]; SRTM, thalamus): 0.77 ± 0.12
test BPND ([3]; SRTM, thalamus): 0.77 ± 0.13
VND (non-displaceable distribution volume) [4]: ~ 1.27
Ki [5]: 0.59 nM
BPND [6, 8]: 2.69 ± 1.1 (24%)
DVR [6, 8]: 3.70 ± 1.1 (17%)
K1 [6, 8]: 0.221 ± 0.20 (52%) mL·cm^−3·min^−1
VT [6, 8]: 22.12 ± 14.1 (37%) mL· cm^−3
k2 [6, 8]: 0.009 ± 0.004 (26%) min^−1
BPND = DVR-1 ([6]; 2TCM, cerebellum-hemispheres (reference region), mean ± SD, n = 3): 0.00 ± 0.00
K1 [6, 9]: 0.144 ± 0.093 mL·cm^−3·min^−1
VT [6, 9]: 5.85 ± 5.88 mL· cm^−3
k2 [6, 9]: 0.063 ± 0.010 min⁻¹
k3 [6, 9]: 0.007 ± 0.005 min⁻¹
k3 / k4 [6, 9]: 1.09 ± 0.84
k4 [6, 9]: 0.004 ± 0.003 min⁻¹
BPND = DVR-1 [6, 10]: 0.44 ± 0.10
K1 [6, 10]: 0.103 ± 0.046 mL·cm^−3·min^−1
VT [6, 10]: 7.13 ± 6.52 mL· cm^−3
k2 [6, 10]: 0.035 ± 0.004 min⁻¹
k3 [6, 10]: 0.010 ± 0.012 min⁻¹
k3 / k4 [6, 10]: 0.94 ± 0.64
k4 [6, 10]: 0.004 ± 0.001 min⁻¹
BPND = DVR-1 [6, 11]: 0.61 ± 0.41
K1 [6, 11]: 0.102 ± 0.059 mL·cm^−3·min^−1
VT [6, 11]: 7.46 ± 5.56 mL· cm^−3
k2 [6, 11]: 0.035 ± 0.008 min⁻¹
k3 [6, 11]: 0.014 ± 0.010 min⁻¹
k3 / k4 [6, 11]: 1.15 ± 0.62
k4 [6, 11]: 0.014 ± 0.013 min⁻¹
BPND = DVR-1 [6, 12]: 0.18 ± 0.13
K1 [6, 12]: 0.107 ± 0.091 mL·cm^−3·min^−1
VT [6, 12]: 5.61 ± 4.55 mL· cm^−3
k2 [6, 12]: 0.039 ± 0.009 min⁻¹
k3 [6, 12]: 0.007 ± 0.003 min⁻¹
k3 / k4 [6, 12]: 1.06 ± 0.30
k4 [6, 12]: 0.006 ± 0.001 min⁻¹
BPND = DVR-1 [6, 13]: 0.12 ± 0.075
K1 [6, 13]: 0.101 ± 0.054 mL·cm^−3·min^−1
VT [6, 13]: 5.51 ± 4.97 mL· cm^−3
k2 [6, 13]: 0.039 ± 0.005 min⁻¹
k3 [6, 13]: 0.004 ± 0.001 min⁻¹
k3 / k4 [6, 13]: 0.82 ± 0.53
k4 [6, 13]: 0.005 ± 0.001 min⁻¹
DVR [6, 14]: 4.37 ± 0.34 (4%)
K1 [6, 14]: 0.113 ± 0.068 (35%) mL·cm^−3·min^−1 and 0.113 ± 0.068 mL·cm^−3·min^−1
VT [6, 14]: 22.31 ± 20.7 (54%) mL· cm^−3 and 22.31 ± 20.71 mL· cm^−3
k2 [6, 14]: 0.027 ± 0.005 (11%) min^−1 and 0.027 ± 0.005 min^−1
k3 [6, 14]: 0.019 ± 0.009 (27%) min^−1 and 0.019 ± 0.009 min^−1
k3 / k4 [6, 14]: 3.52 ± 1.14
k4 [6, 14]: 0.005 ± 0.001 (12%) min^−1 and 0.005 ± 0.001 min^−1
BPND = DVR-1 [6, 15]: 0.097 ± 0.076
K1 [6, 15]: 0.086 ± 0.042 mL·cm^−3·min^−1
VT [6, 15]: 5.23 ± 4.45 mL· cm^−3
k2 [6, 15]: 0.033 ± 0.003 min⁻¹
k3 [6, 15]: 0.003 ± 0.001 min⁻¹
k3 / k4 [6, 15]: 0.74 ± 0.48
k4 [6, 15]: 0.005 ± 0.002 min⁻¹
BPND = DVR-1 [6, 16]: 1.16 ± 0.24
K1 [6, 16]: 0.112 ± 0.061 mL·cm^−3·min^−1
VT [6, 16]: 10.09 ± 8.25 mL· cm^−3
k2 [6, 16]: 0.030 ± 0.004 min⁻¹
k3 [6, 16]: 0.006 ± 0.002 min⁻¹
k3 / k4 [6, 16]: 1.38 ± 0.26
k4 [6, 16]: 0.004 ± 0.001 min⁻¹
BPND = DVR-1 ([6]; 2TCM, vermis, mean ± SD, n = 3): 0.22 ± 0.55
K1 ([6]; 2TCM, vermis, mean ± SD, n = 3): 0.180 ± 0.069 mL·cm^−3·min^−1
VT ([6]; 2TCM, vermis, mean ± SD, n = 3): 4.77 ± 2.72 mL· cm^−3
k2 ([6]; 2TCM, vermis, mean ± SD, n = 3): 0.068 ± 0.005 min⁻¹
k3 ([6]; 2TCM, vermis, mean ± SD, n = 3): 0.004 ± 0.003 min⁻¹
k3 / k4 ([6]; 2TCM, vermis, mean ± SD, n = 3): 0.75 ± 0.43
k4 ([6]; 2TCM, vermis, mean ± SD, n = 3): 0.005 ± 0.001 min⁻¹
BPND = DVR-1 [6, 17]: 0.21 ± 0.13
K1 [6, 17]: 0.065 ± 0.041 mL·cm^−3·min^−1
VT [6, 17]: 5.66 ± 4.49 mL· cm^−3
k2 [6, 17]: 0.026 ± 0.005 min⁻¹
k3 [6, 17]: 0.006 ± 0.002 min⁻¹
k3 / k4 [6, 17]: 1.01 ± 0.32
k4 [6, 17]: 0.006 ± 0.001 min⁻¹
BPND [6, 18]: 2.58 ± 0.9 (20%)
DVR [6, 18]: 3.58 ± 0.9 (15%)
VT [6, 18]: 16.87 ± 17 (58%) mL· cm^−3
DVR ([6]; LoganREF, reference cerebellum-hemispheres, striatum, mean ± SD, n = 7): 3.11 ± 0.43 (5%)
BPND ([6]; LoganREF, frontal cortex, mean ± SD, n = 7): 0.29 ± 0.2
BPND ([6]; LoganREF, hippocampus, mean ± SD, n = 7): 0.47 ± 0.3
BPND ([6]; LoganREF, middle brain, mean ± SD, n = 7): 0.15 ± 0.2
BPND ([6]; LoganREF, occipital cortex, mean ± SD, n = 7): 0.13 ± 0.1
Striatal BPND ([6]; LoganREF, scan duration for analysis 45 min, mean ± SD, n = 7): 1.60 ± 0.58
Striatal BPND ([6]; LoganREF, scan duration for analysis 60 min, mean ± SD, n = 7): 1.69 ± 0.49
Striatal BPND ([6]; LoganREF, scan duration for analysis 90 min, mean ± SD, n = 7): 1.86 ± 0.45
BPND ([6]; LoganREF, temporal cortex, mean ± SD, n = 7): 0.11 ± 0.1
BPND ([6]; LoganREF, thalamus, mean ± SD, n = 7): 0.76 ± 0.3
BPND ([6]; LoganREF, vermis, mean ± SD, n = 7): 0.063 ± 0.2
BPND ([6]; LoganREF, white matter, mean ± SD, n = 7): 0.17 ± 0.2
BPND [6, 19]: 2.17 ± 1 (27%)
DVR [6, 19]: 3.17 ± 1 (18%)
VT [6, 19]: 21.45 ± 14 (38%) mL· cm^−3
BPND [6, 20]: 2.11 ± 0.46 (8%)
DVR [6, 20]: 3.11 ± 0.46 (6%)
R1 = K1/K1′ [6, 20]: ( ^*** R1 = K1/K1′ 0.847 ± 0.08 (4%))
k2 [6, 20]: 0.17 ± 0.16 (36%) min^−1
k3 [6, 20]: 0.05 ± 0.04 (30%) min^−1
k4 [6, 20]: 0.025 ± 0.02 (30%) min^−1
DVR [6, 21]: 3.15 ± 0.46 (6%)
k2 [6, 21]: 0.032 ± 0.007 (8%) min^−1 and 0.032 ± 0.01 min^−1
BPND [6, 22]: 0.32 ± 0.2
R1 [6, 22]: 0.82 ± 0.3
k2 [6, 22]: 0.055 ± 0.02 min⁻¹
BPND [6, 23]: 0.48 ± 0.2
R1 [6, 23]: 0.79 ± 0.1
k2 [6, 23]: 0.053 ± 0.04 min⁻¹
BPND [6, 24]: 0.17 ± 0.1
R1 [6, 24]: 0.74 ± 0.2
k2 [6, 24]: 0.066 ± 0.1 min⁻¹
BPND [6, 25]: 0.12 ± 0.1
R1 [6, 25]: 0.81 ± 0.3
k2 [6, 25]: 0.053 ± 0.02 min⁻¹
Striatal BPND ([6]; SRTM, scan duration for analysis 45 min, mean ± SD, n = 7): 2.67 ± 1.14
Striatal BPND ([6]; SRTM, scan duration for analysis 60 min, mean ± SD, n = 7): 2.14 ± 0.49
Striatal BPND ([6]; SRTM, scan duration for analysis 90 min, mean ± SD, n = 7): 2.18 ± 0.37
BPND [6, 26]: 0.10 ± 0.08
R1 [6, 26]: 0.63 ± 0.2
k2 [6, 26]: 0.074 ± 0.07 min⁻¹
BPND [6, 27]: 0.79 ± 0.3
R1 [6, 27]: 0.95 ± 0.2
k2 [6, 27]: 0.059 ± 0.02 min⁻¹
BPND ([6]; SRTM, vermis, mean ± SD, n = 7): 0.081 ± 0.07
R1 ([6]; SRTM, vermis, mean ± SD, n = 7): 1.08 ± 0.4
k2 ([6]; SRTM, vermis, mean ± SD, n = 7): 0.064 ± 0.6 min⁻¹
BPND [6, 28]: 0.17 ± 0.2
R1 [6, 28]: 0.47 ± 0.1
k2 [6, 28]: 0.032 ± 0.01 min⁻¹
time of peak striatal uptake ([6]; after tracer injection): about 20 min
